From ChEMBL document CHEMBL2163286, “1,2,3,4-tetrahydroquinoline-based selective human neuronal nitric oxide synthase (nNOS) inhibitors: lead optimization studies resulting in the identification of N-(1-(2-(methylamino)ethyl)-1,2,3,4-tetrahydroquinolin-6-yl)thiophene-2-carboximidamide as a preclinical development candidate” (J Med Chem, 2012)
pEC50, pIC50: −log10 of the molar value. Blank lines part the entries; values can stand above or below the molecule they belong to.

Columns and labels:
Cytochrome P450 2C9 = Cytochrome P450 2C9 (Homo sapiens, UniProt P11712); assay: Inhibition of human CYP2C9; type: ADME
Cytochrome P450 2C9, sequence (P11712 whole entry): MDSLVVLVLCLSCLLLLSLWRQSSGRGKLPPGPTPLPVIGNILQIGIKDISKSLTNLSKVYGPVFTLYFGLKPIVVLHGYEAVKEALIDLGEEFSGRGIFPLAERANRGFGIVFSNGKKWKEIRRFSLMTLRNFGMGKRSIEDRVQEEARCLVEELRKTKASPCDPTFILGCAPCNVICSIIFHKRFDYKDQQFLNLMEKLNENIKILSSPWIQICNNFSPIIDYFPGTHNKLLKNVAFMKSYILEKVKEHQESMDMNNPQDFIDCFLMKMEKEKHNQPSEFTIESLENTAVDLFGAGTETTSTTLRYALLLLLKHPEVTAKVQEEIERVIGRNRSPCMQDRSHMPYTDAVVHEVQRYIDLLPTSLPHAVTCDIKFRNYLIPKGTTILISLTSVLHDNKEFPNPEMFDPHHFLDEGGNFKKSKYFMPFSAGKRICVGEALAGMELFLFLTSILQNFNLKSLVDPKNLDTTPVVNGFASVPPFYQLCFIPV

[1] = Plasma clearance in rat at 3 mg/kg, iv or 10 mg/kg, po; type: ADME, organism-based
[2] = AUC in rat at 3 mg/kg, iv or 10 mg/kg, po; type: ADME, organism-based; settings: plasma
[3] = Volume of distribution at steady state in rat at 3 mg/kg, iv or 10 mg/kg, po; type: ADME, organism-based; settings: in vivo, read-out: Vdss
[4] = molecular target: Muscarinic acetylcholine receptor M3 (Homo sapiens, UniProt P20309); assay: Inhibition of human muscarinic M3 receptor by cell based functional assay
[5] = molecular target: T1, Muscarinic acetylcholine receptor M1 (Homo sapiens, UniProt P11229); assay: Inhibition of human muscarinic M1 receptor by cell based functional assay
T1 sequence (P11229 whole entry): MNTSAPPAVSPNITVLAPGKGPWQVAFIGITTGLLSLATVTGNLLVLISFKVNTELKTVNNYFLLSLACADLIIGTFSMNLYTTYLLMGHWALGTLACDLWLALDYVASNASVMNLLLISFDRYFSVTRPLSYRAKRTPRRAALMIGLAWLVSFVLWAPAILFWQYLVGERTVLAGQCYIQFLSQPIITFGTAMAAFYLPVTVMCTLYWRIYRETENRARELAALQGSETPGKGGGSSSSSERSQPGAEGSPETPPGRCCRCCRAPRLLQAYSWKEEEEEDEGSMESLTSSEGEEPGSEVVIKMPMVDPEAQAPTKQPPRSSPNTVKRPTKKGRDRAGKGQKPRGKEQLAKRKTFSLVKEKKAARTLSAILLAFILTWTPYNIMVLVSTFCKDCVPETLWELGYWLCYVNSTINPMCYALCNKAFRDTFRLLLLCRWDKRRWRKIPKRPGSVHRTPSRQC

Cytochrome P450 3A4 = Cytochrome P450 3A4 (Homo sapiens, UniProt P08684); assay: Inhibition of human CYP3A4; type: ADME
[6] = Oral bioavailability life in rat at 10 mg/kg; type: ADME, organism-based; settings: in vivo
[7] = molecular target: T2, Muscarinic acetylcholine receptor M2 (Homo sapiens, UniProt P08172); assay: Inhibition of human muscarinic M2 receptor by cell based functional assay
T2 sequence (P08172 whole entry): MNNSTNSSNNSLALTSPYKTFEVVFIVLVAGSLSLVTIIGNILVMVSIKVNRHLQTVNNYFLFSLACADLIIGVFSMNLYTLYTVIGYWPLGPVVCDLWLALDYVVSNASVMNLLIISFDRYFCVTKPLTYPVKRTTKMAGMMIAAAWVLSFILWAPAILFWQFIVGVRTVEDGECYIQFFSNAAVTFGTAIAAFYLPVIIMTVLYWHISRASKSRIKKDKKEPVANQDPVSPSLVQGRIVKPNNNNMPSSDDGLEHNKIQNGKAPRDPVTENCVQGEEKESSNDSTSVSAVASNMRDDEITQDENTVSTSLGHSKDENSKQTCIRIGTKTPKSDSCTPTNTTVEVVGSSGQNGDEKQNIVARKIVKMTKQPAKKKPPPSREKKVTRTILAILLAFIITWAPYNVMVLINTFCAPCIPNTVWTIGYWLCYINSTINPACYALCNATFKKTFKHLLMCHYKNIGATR

[8] = Tmax in rat at 3 mg/kg, iv or 10 mg/kg, po; type: ADME, organism-based; settings: in vivo
[9] = Plasma protein binding in human plasma; type: ADME, cell-free; settings: read-out: PPB (converted)
Cytochrome P450 2C19 = Cytochrome P450 2C19 (Homo sapiens, UniProt P33261); assay: Inhibition of human CYP2C19; type: ADME
Cytochrome P450 2C19, sequence (P33261 whole entry): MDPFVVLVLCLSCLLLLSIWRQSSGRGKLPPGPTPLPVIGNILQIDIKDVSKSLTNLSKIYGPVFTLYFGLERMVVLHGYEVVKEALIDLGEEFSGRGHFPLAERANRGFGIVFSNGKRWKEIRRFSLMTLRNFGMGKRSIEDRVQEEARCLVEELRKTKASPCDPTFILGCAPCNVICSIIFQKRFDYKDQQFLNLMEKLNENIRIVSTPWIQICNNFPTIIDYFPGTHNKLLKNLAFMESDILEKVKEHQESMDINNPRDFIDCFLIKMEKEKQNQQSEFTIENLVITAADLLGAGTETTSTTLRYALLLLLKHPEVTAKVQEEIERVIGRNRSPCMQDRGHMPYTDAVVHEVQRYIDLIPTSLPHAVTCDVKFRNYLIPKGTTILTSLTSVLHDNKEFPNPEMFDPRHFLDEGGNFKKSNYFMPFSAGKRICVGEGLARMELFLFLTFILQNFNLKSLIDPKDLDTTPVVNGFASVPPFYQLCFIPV

[10] = Cmax in rat at 3 mg/kg, iv or 10 mg/kg, po; type: ADME, organism-based; settings: in vivo
[11] = Half life in rat at 10 mg/kg, po; type: ADME, organism-based; design: dose 10 mg/kg, route oral; settings: in vivo
[12] = molecular target: T3, Adrenergic receptor alpha-2 (Rattus norvegicus, UniProt P22086+P19328+P22909); assay: Inhibition of rat Alpha-2 adrenergic receptor by cell based functional assay
T3 sequence (P22086 whole entry): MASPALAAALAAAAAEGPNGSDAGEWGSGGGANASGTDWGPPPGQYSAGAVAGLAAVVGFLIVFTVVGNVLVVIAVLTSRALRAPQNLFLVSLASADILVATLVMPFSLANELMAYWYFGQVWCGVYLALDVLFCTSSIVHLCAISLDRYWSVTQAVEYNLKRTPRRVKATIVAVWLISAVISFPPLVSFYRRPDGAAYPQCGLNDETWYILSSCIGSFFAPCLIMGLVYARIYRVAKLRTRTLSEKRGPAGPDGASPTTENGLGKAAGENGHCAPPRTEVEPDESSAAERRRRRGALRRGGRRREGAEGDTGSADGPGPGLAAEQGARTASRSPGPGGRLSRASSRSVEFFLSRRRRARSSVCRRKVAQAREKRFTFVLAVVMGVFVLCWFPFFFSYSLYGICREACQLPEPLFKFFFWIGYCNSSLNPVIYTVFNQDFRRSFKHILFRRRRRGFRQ
T3 sequence (P19328 whole entry): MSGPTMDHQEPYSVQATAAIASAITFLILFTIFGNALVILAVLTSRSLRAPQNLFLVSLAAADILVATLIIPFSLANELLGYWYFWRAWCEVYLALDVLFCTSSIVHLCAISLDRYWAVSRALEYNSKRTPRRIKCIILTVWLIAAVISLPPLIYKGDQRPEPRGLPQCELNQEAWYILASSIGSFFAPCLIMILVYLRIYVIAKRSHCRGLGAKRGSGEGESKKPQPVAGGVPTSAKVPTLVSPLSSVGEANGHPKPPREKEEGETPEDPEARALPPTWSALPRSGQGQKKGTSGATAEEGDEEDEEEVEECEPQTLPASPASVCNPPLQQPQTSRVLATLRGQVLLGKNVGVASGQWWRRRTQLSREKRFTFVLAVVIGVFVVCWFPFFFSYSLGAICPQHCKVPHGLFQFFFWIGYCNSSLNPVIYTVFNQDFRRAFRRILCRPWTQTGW
T3 sequence (P22909 whole entry): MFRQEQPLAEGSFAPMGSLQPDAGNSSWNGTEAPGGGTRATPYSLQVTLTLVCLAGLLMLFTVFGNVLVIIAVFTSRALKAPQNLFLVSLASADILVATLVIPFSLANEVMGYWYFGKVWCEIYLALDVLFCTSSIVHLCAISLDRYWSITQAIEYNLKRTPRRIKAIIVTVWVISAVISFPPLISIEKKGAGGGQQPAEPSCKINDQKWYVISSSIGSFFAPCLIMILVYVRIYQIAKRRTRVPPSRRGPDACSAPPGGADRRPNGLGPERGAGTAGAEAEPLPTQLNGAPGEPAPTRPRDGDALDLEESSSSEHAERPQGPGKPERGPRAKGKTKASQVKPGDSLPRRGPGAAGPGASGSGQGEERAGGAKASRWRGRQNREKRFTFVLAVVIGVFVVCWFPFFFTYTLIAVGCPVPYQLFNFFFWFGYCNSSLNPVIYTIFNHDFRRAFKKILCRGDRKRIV

Cytochrome P450 1A2 = molecular target: T4, Cytochrome P450 1A2 (Homo sapiens, UniProt P05177); assay: Inhibition of human CYP1A2; type: ADME
T4 sequence (P05177 whole entry): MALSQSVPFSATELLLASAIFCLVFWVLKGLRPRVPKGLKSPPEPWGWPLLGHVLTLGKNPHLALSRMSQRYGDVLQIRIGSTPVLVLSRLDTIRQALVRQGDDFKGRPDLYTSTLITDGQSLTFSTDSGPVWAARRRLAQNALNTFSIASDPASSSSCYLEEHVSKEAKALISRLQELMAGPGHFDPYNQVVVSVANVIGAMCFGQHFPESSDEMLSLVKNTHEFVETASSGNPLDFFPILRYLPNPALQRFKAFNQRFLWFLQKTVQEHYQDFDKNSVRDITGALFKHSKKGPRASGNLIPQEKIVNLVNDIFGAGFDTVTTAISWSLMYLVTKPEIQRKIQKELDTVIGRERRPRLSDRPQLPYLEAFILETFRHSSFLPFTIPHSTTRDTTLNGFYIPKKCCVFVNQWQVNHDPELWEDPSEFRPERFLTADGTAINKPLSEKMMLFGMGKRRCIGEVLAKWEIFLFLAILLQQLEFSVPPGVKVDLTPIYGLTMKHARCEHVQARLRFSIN

Cytochrome P450 2D6 = Cytochrome P450 2D6 (Homo sapiens, UniProt P10635); assay: Inhibition of human CYP2D6; type: ADME
[13] = molecular target: T5, Muscarinic acetylcholine receptor M4 (Homo sapiens, UniProt P08173); assay: Inhibition of human muscarinic M4 receptor by cell based functional assay
T5 sequence (P08173 whole entry): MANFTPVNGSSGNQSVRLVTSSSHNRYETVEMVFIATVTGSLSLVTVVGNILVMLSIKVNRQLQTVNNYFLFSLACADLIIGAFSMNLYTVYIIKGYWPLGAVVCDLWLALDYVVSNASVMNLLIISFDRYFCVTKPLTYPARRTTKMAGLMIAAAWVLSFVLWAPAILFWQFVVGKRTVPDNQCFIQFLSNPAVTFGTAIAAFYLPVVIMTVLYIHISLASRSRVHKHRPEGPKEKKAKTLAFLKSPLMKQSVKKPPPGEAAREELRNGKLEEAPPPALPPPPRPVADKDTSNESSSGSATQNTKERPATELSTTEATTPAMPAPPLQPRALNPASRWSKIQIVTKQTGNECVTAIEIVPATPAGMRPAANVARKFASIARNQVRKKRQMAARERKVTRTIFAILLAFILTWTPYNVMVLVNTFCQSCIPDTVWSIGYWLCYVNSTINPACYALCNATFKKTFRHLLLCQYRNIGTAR

[14] = molecular target: Voltage-gated inwardly rectifying potassium channel KCNH2 (Homo sapiens, UniProt Q12809); assay: Inhibition of human ERG expressed in HEK293 cells at -80 mV holding potential assessed as reduction in tail current amplitude by conventional patch clamp assay; type: cell-based
Voltage-gated inwardly rectifying potassium channel KCNH2, sequence (Q12809 whole entry): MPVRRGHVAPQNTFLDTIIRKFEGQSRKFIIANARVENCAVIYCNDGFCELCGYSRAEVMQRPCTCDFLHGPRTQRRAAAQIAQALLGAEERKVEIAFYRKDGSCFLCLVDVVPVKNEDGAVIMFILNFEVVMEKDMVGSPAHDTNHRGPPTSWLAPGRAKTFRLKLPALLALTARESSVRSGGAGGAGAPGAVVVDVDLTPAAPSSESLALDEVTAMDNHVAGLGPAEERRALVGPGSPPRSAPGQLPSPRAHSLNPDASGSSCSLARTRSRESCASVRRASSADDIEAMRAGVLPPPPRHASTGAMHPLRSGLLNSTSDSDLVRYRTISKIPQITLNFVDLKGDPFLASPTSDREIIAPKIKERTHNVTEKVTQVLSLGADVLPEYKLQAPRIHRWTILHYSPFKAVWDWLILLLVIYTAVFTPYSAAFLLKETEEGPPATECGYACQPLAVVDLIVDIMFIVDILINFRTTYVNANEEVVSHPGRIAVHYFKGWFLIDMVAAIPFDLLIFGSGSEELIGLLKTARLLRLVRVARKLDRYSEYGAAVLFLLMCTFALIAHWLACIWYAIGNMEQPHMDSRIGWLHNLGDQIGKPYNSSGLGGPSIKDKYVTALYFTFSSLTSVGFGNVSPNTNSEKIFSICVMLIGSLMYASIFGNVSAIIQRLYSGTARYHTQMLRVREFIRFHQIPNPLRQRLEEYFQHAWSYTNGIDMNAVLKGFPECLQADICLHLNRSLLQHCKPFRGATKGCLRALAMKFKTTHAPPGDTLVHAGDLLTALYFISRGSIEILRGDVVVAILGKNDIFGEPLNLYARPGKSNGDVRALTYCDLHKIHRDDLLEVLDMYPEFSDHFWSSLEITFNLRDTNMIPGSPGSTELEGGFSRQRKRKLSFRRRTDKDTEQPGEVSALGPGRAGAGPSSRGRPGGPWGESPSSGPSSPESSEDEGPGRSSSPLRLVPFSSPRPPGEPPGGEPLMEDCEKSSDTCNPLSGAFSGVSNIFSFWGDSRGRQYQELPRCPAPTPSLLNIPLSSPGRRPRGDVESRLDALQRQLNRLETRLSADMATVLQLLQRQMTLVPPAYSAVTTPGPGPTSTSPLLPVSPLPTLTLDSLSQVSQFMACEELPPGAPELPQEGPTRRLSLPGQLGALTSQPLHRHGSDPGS

Nitric oxide synthase 1 = Nitric oxide synthase 1 (Homo sapiens, UniProt P29475); assay: Inhibition of human nNOS expressed in Sf9 cells assessed as reduction in conversion of [3H]L-arginine to [3H]L-citrulline preincubated for 15 mins by radiometric method
Nitric oxide synthase 1, sequence (P29475 whole entry): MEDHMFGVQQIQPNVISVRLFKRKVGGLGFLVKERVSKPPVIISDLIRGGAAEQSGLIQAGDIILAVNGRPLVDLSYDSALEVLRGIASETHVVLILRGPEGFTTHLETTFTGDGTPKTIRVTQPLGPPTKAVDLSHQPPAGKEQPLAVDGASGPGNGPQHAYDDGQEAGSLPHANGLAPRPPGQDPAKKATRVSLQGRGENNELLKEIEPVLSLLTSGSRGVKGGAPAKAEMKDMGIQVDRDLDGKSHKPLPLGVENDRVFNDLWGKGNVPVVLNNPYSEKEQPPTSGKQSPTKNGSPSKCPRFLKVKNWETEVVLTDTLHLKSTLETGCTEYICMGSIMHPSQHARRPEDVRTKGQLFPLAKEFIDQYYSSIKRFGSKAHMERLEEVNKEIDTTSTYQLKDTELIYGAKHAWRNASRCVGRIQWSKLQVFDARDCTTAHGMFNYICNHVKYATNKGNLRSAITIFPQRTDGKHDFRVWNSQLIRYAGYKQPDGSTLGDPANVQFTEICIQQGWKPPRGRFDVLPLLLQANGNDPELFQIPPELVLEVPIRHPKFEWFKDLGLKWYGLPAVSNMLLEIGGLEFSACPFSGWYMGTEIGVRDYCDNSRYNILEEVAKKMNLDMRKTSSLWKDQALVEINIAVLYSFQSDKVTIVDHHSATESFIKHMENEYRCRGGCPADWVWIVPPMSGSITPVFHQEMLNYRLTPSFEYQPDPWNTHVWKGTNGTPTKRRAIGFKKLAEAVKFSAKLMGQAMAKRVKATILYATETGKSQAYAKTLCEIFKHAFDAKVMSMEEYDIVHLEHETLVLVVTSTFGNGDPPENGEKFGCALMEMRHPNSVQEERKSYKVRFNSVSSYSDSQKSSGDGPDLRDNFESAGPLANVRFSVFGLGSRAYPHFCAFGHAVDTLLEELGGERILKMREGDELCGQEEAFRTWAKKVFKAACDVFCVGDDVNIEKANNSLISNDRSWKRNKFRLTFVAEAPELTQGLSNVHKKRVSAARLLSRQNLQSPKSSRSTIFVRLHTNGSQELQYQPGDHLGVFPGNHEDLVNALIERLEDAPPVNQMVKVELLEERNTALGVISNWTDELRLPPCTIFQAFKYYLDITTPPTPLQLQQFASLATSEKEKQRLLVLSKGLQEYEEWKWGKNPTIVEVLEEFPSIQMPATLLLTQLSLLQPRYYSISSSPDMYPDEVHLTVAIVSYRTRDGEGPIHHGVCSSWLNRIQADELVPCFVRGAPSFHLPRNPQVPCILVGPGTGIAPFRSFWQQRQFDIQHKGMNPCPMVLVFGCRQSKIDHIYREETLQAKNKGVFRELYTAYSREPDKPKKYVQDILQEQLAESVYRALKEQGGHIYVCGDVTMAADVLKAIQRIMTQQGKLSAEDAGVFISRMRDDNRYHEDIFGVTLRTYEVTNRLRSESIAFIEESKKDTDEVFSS

[15] = molecular target: Nitric oxide synthase, inducible (Homo sapiens, UniProt P35228); assay: Inhibition of human recombinant iNOS expressed in Sf9 cells assessed as reduction in conversion of [3H]L-arginine to [3H]L-citrulline preincubated for 15 mins by radiometric method
Nitric oxide synthase, inducible, sequence (P35228 whole entry): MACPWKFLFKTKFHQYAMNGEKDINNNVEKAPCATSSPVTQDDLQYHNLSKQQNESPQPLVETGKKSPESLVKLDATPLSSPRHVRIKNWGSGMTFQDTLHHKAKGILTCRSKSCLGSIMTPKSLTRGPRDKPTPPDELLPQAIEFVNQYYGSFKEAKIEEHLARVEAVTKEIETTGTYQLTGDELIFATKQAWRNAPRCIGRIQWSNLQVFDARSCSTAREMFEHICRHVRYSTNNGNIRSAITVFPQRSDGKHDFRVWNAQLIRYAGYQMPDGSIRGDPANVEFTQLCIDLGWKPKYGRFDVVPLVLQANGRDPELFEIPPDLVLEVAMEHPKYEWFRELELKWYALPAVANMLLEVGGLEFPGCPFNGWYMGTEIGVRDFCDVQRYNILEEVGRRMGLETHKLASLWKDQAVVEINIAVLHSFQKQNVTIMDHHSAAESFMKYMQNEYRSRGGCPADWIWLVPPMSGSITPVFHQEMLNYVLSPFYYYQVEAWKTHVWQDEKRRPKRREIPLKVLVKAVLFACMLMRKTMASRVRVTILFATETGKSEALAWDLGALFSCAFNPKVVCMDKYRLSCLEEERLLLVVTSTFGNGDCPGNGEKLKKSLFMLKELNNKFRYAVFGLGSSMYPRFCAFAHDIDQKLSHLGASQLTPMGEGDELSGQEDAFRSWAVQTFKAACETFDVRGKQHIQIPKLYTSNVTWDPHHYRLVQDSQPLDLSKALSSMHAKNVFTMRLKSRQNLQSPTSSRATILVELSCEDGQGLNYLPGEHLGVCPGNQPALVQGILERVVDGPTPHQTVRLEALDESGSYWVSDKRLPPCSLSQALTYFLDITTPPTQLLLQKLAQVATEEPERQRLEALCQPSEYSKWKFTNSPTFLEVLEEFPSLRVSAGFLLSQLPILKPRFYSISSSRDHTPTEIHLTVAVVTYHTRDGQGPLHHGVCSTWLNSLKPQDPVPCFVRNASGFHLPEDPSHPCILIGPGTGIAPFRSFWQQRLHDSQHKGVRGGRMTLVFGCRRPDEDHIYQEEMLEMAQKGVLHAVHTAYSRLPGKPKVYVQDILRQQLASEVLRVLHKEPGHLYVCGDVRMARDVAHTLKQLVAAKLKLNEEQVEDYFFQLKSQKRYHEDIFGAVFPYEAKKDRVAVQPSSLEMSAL

inhibition (INH) (Cytochrome P450 2C9): Not Active
clearance [1]: 87.7 mL/min/kg
AUC [2]: 1160 ng·h/mL
Vd [3]: 83.9 L/kg
pEC50 [4]: < 4.40
pEC50 [5]: < 4.40
inhibition (INH) (Cytochrome P450 3A4): Not Active
bioavailability [6]: 59.9%
pEC50 [7]: < 4.40
Tmax [8]: 2 h
fraction unbound [9]: 0.6
inhibition (INH) (Cytochrome P450 2C19): Not Active
Cmax [10]: 880 nM
half-life [11]: 8.1 h
EC50 [12]: > 40 µM
inhibition (INH) (Cytochrome P450 1A2): Not Active
inhibition (INH) (Cytochrome P450 2D6): Not Active
pEC50 [13]: < 4.40
SMILES: CNCCN1CCCc2cc(NC(=N)c3cccs3)ccc21

pIC50 [15]: < 4.00
SMILES: CNCCCN1CCCc2cc(NC(=N)c3cccs3)ccc21
pIC50 [14]: < 4.52

More lines, now with the values behind:

SMILES: CN1CCC[C@H]1CCN1CCCc2cc(NC(=N)c3cccs3)ccc21
pIC50 [14]: 5.33

SMILES: CC(C)NCCN1CCCc2cc(NC(=N)c3cccs3)ccc21
pIC50 (Nitric oxide synthase 1): 6.57
pIC50 [14]: 4.56
pIC50 [15]: 4.05

SMILES: CCN(C)CCN1CCCc2cc(NC(=N)c3cccs3)ccc21
pIC50 (Nitric oxide synthase 1): 7.01
pIC50 [14]: 5.35
pIC50 [15]: < 4.00
